Measurements from publication PMC10117049, “RND Pump-Mediated Efflux of Amotosalen, a Compound Used in Pathogen Inactivation Technology to Enhance Safety of Blood Transfusion Products, May Compromise Its Gram-Negative Anti-Bacterial Activity” (mSphere, 2023).
Read-outs that look alike come from different tables or passages of the source.

Assays:
AdeB = AdeB (Acinetobacter baumannii, UniProt Q2FD70); assay: fluorescence polarization titration using the inherent fluorescence of amotosalen ([…]); type: binding
A. baumannii = assay: microbe, parasite or virus in culture; parameters: Broth microdilution MIC in 384-well plates after UVA exposure (2 J/cm2), A600 growth read-out; settings: Acinetobacter baumannii, 20 h, MDRb=Yes, UVA 365 nm, 2 J/cm2, modal MIC of three or more replicates
Protocol: (§1) For MIC determination, bacterial stocks frozen at −80°C were streaked onto tryptic soy agar plates containing 5% sheep blood (Remel), and grown overnight at 35°C in ambient air. Colonies were then suspended in 0.9% saline to 0.5 McFarland, measured using a Densicheck (bioMérieux); diluted 1:300 in cation-adjusted Mueller-Hinton broth (BD); and dispensed into 384-well polystyrene plates (Greiner Bio-One) at 50 μL per well with the following exceptions: For MIC determinations with AG100AX strains containing pAdeC and pAdeAB plasmids, −80°C frozen stocks were inoculated directly into non-cation-adjusted Mueller-Hinton broth containing 100 μg/mL ampicillin, 50 μg/mL nourseothricin, 5 mM calcium chloride, and 5 mM magnesium chloride, with or without adeABC induction using 1% L-arabinose and 1.0 mM Isopropyl β-D-1-thiogalactopyranoside (IPTG), and grown overnight at 37°C in 15 mL conical tubes with continual rotation. Bacterial cultures were then adjusted to 0.5 McFarland and diluted 1:300 in the same medium, and dispensed as above. Induction of other cloned efflux pumps was with 1% L-arabinose (or 0.5% L-arabinose for cloned P. aeruginosa pumps) in the absence of supplemental divalent cations. Lastly, P. aeruginosa PAO1 strains were dispensed into 96-well plates to avoid skipped-well effects observed in 384-well plate format. Filled microplates were centrifuged at 1250 rcf for 4 min to ensure the entire inoculum was in continuity with the bottom of the well. Then, 2-fold doubling dilutions of stock solutions of amotosalen, AMT, or 8-MOP supplemented with 0.3% Tween 20 (Sigma-Aldrich) were dispensed into microwells using the HP D300 digital dispensing system (HP, Inc.), as previously described ([87][–][90]), and the microplates were mixed for 5 min on a microplate shaker to ensure complete mixing of psoralens with the inoculum. Microplates were then exposed to UV light in a UV Stratalinker 1800 (Stratagene), retrofitted with UV BL F8T5 CFL 12-inch UVA 365 nm Blacklight Bulbs (Coolspider), and calibrated according to manufacturer’s instructions with an UVA365 UV Light Meter (Amtast) for a total exposure of 2 Joules/cm^2 of UVA, to approximate exposure during platelet pathogen inactivation ([10]). Testing of control antibiotics was performed in an identical fashion, however, without UVA exposure. After incubation at 35°C for 20 h, the A600 was measured using a TECAN M1000 microplate reader. MICs were determined based on a growth inhibition A600 cutoff of 0.06, which is consistent with our prior determinations of Clinical and Laboratory Standards Institute reference standard equivalent, MIC determinations in 384-well plate format ([88], [90], [91]). […] The concentrations of MgCl2 and CaCl2 used were empirically determined previously to be optimal for efflux of minocycline and ethidium bromide (data not shown).

Burkholderia cenocepacia = assay: microbe, parasite or virus in culture; parameters: Broth microdilution MIC in 384-well plates after UVA exposure (2 J/cm2), A600 growth read-out; settings: Burkholderia cenocepacia, 20 h, MDRb=Unknown, UVA 365 nm, 2 J/cm2, modal MIC of three or more replicates
Protocol: as §1

Burkholderia cepacia = assay: microbe, parasite or virus in culture; parameters: Broth microdilution MIC in 384-well plates after UVA exposure (2 J/cm2), A600 growth read-out; settings: Burkholderia cepacia, 20 h, read-out: Amotosalen Modal MIC (mM)a, Strain #=BEI NR-702; MDRb=Unknown; UVA 365 nm, 2 J/cm2; modal MIC of three or more replicates
Protocol: as §1

Burkholderia multivorans = assay: microbe, parasite or virus in culture; parameters: Broth microdilution MIC in 384-well plates after UVA exposure (2 J/cm2), A600 growth read-out; settings: Burkholderia multivorans, 20 h, read-out: Amotosalen Modal MIC (mM)a, Strain #=BEI NR-20533; MDRb=Unknown; UVA 365 nm, 2 J/cm2; modal MIC of three or more replicates
Protocol: as §1

E. coli = assay: microbe, parasite or virus in culture; parameters: Broth microdilution MIC in 384-well plates after UVA exposure (2 J/cm2), A600 growth read-out; settings: Escherichia coli, 20 h, UVA 365 nm, 2 J/cm2, modal MIC of three or more replicates
Protocol: as §1

K. pneumoniae = assay: microbe, parasite or virus in culture; parameters: Broth microdilution MIC in 384-well plates after UVA exposure (2 J/cm2), A600 growth read-out; settings: Klebsiella pneumoniae, 20 h, MDRb=Yes, UVA 365 nm, 2 J/cm2, modal MIC of three or more replicates
Protocol: as §1

P. aeruginosa = assay: microbe, parasite or virus in culture; parameters: Broth microdilution MIC in 384-well plates after UVA exposure (2 J/cm2), A600 growth read-out; settings: Pseudomonas aeruginosa, 20 h, UVA 365 nm, 2 J/cm2, modal MIC of three or more replicates
Protocol: as §1

[1] = test system: Stenotrophomonas maltophilia; assay: microbe, parasite or virus in culture; parameters: Broth microdilution MIC in 384-well plates after UVA exposure (2 J/cm2), A600 growth read-out; settings: Stenotrophomonas maltophilia, 20 h, UVA 365 nm, 2 J/cm2, modal MIC of three or more replicates
Protocol: as §1

AdeB, sequence (Q2FD70 entry or part of it): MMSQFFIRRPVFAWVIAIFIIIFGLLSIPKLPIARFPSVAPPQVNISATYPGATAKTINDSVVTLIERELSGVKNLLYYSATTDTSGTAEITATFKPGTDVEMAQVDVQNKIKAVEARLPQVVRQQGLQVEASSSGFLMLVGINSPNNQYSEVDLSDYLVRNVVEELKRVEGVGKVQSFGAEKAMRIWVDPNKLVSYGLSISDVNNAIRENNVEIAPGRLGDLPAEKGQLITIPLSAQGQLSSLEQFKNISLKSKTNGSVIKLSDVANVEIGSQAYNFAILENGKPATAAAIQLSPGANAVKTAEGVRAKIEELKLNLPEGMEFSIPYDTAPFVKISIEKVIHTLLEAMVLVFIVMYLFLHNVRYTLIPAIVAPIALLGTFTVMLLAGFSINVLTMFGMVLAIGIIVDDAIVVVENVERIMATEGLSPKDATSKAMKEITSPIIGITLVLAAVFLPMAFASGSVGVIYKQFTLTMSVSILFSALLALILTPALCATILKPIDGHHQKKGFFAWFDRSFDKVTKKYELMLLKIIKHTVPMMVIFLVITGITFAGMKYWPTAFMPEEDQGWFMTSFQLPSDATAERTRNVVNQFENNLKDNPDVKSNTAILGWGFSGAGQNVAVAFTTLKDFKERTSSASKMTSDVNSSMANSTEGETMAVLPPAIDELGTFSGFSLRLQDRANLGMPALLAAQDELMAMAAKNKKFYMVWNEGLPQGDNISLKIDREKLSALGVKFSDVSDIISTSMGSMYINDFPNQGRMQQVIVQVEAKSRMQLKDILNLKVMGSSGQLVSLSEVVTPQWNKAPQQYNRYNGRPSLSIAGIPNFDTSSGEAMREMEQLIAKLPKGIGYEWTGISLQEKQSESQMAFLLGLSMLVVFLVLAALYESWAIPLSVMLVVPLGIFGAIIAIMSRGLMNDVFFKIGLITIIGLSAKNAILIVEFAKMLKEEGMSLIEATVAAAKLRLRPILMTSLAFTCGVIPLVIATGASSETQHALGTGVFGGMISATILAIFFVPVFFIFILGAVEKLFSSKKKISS

Cc1oc2c(C)c3oc(=O)cc(C)c3cc2c1COCCN [amotosalen, 4′-(4-amino-2-oxa)butyl-4,5′,8-trimethylpsoralen]
Kd (AdeB): 27.9 ± 1.8 µM | MIC (A. baumannii; read-out: Amotosalen Modal MIC (mM)a, Strain #=FDA-CDC 0292): 0.064 mM | MIC (A. baumannii; read-out: Amotosalen Modal MIC (mM)a, Strain #=WRAIR 15067): 0.128 mM | MIC (Burkholderia cenocepacia; read-out: Amotosalen Modal MIC (mM)a, Strain #=BEI NR-701): 0.128 mM | MIC (Burkholderia cenocepacia; read-out: Amotosalen Modal MIC (mM)a, Strain #=BEI NR-20535): 0.256 mM | MIC (Burkholderia cepacia): > 0.256 mM | MIC (Burkholderia multivorans): > 0.256 mM | MIC (E. coli; read-out: Amotosalen Modal MIC (mM)a, Strain #=ATCC 25922e, MDRb=No): 0.008 mM | MIC (E. coli; read-out: Amotosalen Modal MIC (mM)a, Strain #=FDA-CDC 0114, MDRb=Yes): 0.128 mM | MIC (E. coli; read-out: Amotosalen Modal MIC (mM)a, Strain #=FDA-CDC 0118, MDRb=Yes): 0.064 mM | MIC (K. pneumoniae; read-out: Amotosalen Modal MIC (mM)a, Strain #=FDA-CDC 0113): 0.128 mM | MIC (K. pneumoniae; read-out: Amotosalen Modal MIC (mM)a, Strain #=FDA-CDC 0146): 0.256 mM | MIC (P. aeruginosa; read-out: Amotosalen Modal MIC (mM)a, Strain #=ATCC 27583e, MDRb=No): < 0.004 mM | MIC (P. aeruginosa; read-out: Amotosalen Modal MIC (mM)a, Strain #=FDA-CDC 229, MDRb=Yes): > 0.256 mM | MIC (P. aeruginosa; read-out: Amotosalen Modal MIC (mM)a, Strain #=FDA-CDC 230, MDRb=Yes): 0.128 mM | MIC (P. aeruginosa; read-out: Amotosalen Modal MIC (mM)a, Strain #=FDA-CDC 232, MDRb=Yes): 0.256 mM | MIC ([1]; read-out: Amotosalen Modal MIC (mM)a, Strain #=JEK154): 0.256 mM | MIC ([1]; read-out: Amotosalen Modal MIC (mM)a, Strain #=JEK155): 0.064 mM
